Laboratory results as given in US20240383904A1, “HETEROCYCLIC COMPOUNDS” (Hoffmann-La Roche Inc., priority 2021, published 2024).

Target: T1, MAGL (Homo sapiens, UniProt Q99685)
T1 sequence (Q99685 1-303): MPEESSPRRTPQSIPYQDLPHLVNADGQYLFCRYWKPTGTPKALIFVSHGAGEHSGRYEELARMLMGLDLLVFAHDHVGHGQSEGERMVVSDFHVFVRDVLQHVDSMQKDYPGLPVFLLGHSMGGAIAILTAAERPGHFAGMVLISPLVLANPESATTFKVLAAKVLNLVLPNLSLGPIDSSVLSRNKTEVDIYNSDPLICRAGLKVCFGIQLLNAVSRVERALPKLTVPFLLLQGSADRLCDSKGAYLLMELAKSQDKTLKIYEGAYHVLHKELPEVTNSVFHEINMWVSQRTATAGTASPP
Test: 2-AG assay: MAGL inhibitory activity by hydrolysis of 2-arachidonoylglycerol to arachidonic acid, followed by mass spectrometry
Format: biochemical
Conditions: 15 min preincubation, 30 min reaction at RT, 8 μM 2-arachidonoylglycerol

Row | SMILES | IC50 [µM]
1 | CS(=O)(=O)c1ccc(CC2CC3(C2)CN(C(=O)N2CC4(COCC(=O)N4)C2)C3)cc1C(F)(F)F [Example 181, 2-[6-[[4-methylsulfonyl-3-(trifluoromethyl)phenyl]methyl]-2-azaspiro[3.3]heptane-2-carbonyl]-8-oxa-2,5-diazaspiro[3.5]nonan-6-one] | 0.00145
2 | O=C1COCC2(CN(C(=O)N3CC4(CC(Cc5cccc(S(=O)(=O)C(F)(F)F)c5)C4)C3)C2)N1 [Example 182, 2-[6-[[3-(trifluoromethylsulfonyl)phenyl]methyl]-2-azaspiro[3.3]heptane-2-carbonyl]-8-oxa-2,5-diazaspiro[3.5]nonan-6-one] | 0.485
3 | CS(=O)(=O)c1ccc(CC2CC3(C2)CN(C(=O)N2CC4(COCC(=O)N4)C2)C3)cc1C(F)(F)F [Example 183] | 0.00731
4 | CS(=O)(=O)c1cc(C(F)(F)F)ccc1CC1CC2(C1)CN(C(=O)N1CC3(COCC(=O)N3)C1)C2 [Example 184, 2-[6-[[2-methylsulfonyl-4-(trifluoromethyl)phenyl]methyl]-2-azaspiro[3.3]heptane-2-carbonyl]-8-oxa-2,5-diazaspiro[3.5]nonan-6-one] | 0.21
5 | CS(=O)(=O)c1cc(C(F)(F)F)ccc1CC1CC2(C1)CN(C(=O)N1CC3(CCCC(=O)N3)C1)C2 [Example 185, 2-[6-[[2-methylsulfonyl-4-(trifluoromethyl)phenyl]methyl]-2-azaspiro[3.3]heptane-2-carbonyl]-2,5-diazaspiro[3.5]nonan-6-one] | 0.0345
6 | O=C1CCCC2(CN(C(=O)N3CC4(CC(Cc5cccc(S(=O)(=O)C(F)(F)F)c5)C4)C3)C2)N1 [Example 186, 2-[6-[[3-(trifluoromethylsulfonyl)phenyl]methyl]-2-azaspiro[3.3]heptane-2-carbonyl]-2,5-diazaspiro[3.5]nonan-6-one] | 0.095
7 | CS(=O)(=O)c1cccc(CN2CC3(C2)CN(C(=O)N2CC4(COC(=O)N4)C2)C3)c1 [Example 187, 2-[6-[(3-methylsulfonylphenyl)methyl]-2,6-diazaspiro[3.3]heptane-2-carbonyl]-7-oxa-2,5-diazaspiro[3.4]octan-6-one] | 0.0467

The remaining lines, values ahead:

Row | IC50 [µM] | SMILES
8 | 0.00172 | O=C1NC2(CO1)CN(C(=O)N1CC3(CCN(S(=O)(=O)c4ccc(C(F)(F)F)cc4F)CC3)C1)C2 [Example 189, 2-[7-[2-fluoro-4-(trifluoromethyl)phenyl]sulfonyl-2,7-diazaspiro[3.5]nonane-2-carbonyl]-7-oxa-2,5-diazaspiro[3.4]octan-6-one]
9 | 0.0104 | O=C1NC2(CO1)CN(C(=O)N1CC3(C1)CN(S(=O)(=O)c1ccccc1OC(F)(F)F)C3)C2 [Example 190, 2-[2-[2-(trifluoromethoxy)phenyl]sulfonyl-2,6-diazaspiro[3.3]heptane-6-carbonyl]-7-oxa-2,5-diazaspiro[3.4]octan-6-one]
10 | 0.03 | O=C1NC2(CO1)CN(C(=O)N1CC3(C1)CN(S(=O)(=O)c1ccc(OC(F)(F)F)cc1)C3)C2 [Example 191, 2-[2-[4-(trifluoromethoxy)phenyl]sulfonyl-2,6-diazaspiro[3.3]heptane-6-carbonyl]-7-oxa-2,5-diazaspiro[3.4]octan-6-one]
11 | 0.0147 | O=C1NC2(CO1)CN(C(=O)N1CC3(C1)CN(S(=O)(=O)c1cccc(OC(F)(F)F)c1)C3)C2 [Example 192, 2-[2-[3-(trifluoromethoxy)phenyl]sulfonyl-2,6-diazaspiro[3.3]heptane-6-carbonyl]-7-oxa-2,5-diazaspiro[3.4]octan-6-one]
12 | 0.0653 | CC1(NS(=O)(=O)N2CC3(CN(C(=O)N4CC5(COC(=O)N5)C4)C3)C2)CC1 [Example 193, N-(1-methylcyclopropyl)-6-(6-oxo-7-oxa-2,5-diazaspiro[3.4]octane-2-carbonyl)-2,6-diazaspiro[3.3]heptane-2-sulfonamide]
13 | 0.0446 | O=C1CCC2(CN(C(=O)N3CC4(CCN(S(=O)(=O)c5ccc(C(F)(F)F)cc5F)CC4)C3)C2)N1 [Example 194, 2-[7-[2-fluoro-4-(trifluoromethyl)phenyl]sulfonyl-2,7-diazaspiro[3.5]nonane-2-carbonyl]-2,5-diazaspiro[3.4]octan-6-one]
